{"source": "patent US10759994B2", "about": "“Luminogenic transition metal-based pyridyl complex and its use” (City University of Hong Kong, priority 2016, dated 2020)", "key": {"[1]": {"settings": "aerated aqueous solution, λex=455 nm; cited from earlier work"}, "HeLa cells": {"tested_on": "HeLa cells", "type": "cell-based", "settings": "BCN-C10 pretreatment (200 μM, 1 h), complex 40 μM", "excerpt": "The results particularly highlight the potential of the luminogenic transition metal-based polypyridyl complexes of the present invention for bioorthogonal labeling. […] Importantly, although the cellular uptake of complex 2b was substantially higher, it was much less cytotoxic than complex 4b toward the pretreated cells. […] The results also highlight the potential therapeutic use of intracellular bioorthogonal coupling reactions in activating the cytotoxicity of metallo drugs.\nFor determining the cytotoxicity of complexes 1 b 5b, HeLa cells were seeded in a 96-well flat-bottomed microplate (about 10,000 cells well^−1) in growth medium (100 μL) and incubated at 37° C. under a 5% CO2 atmosphere for 24 h. The cells were then incubated in either blank medium or growth medium/DMSO (99:1, v/v) (100 μL) containing BCN-C10 (200 μM) in the dark at 37° C. under a 5% CO2 atmosphere for 1 h. The medium was then removed, the cell layer was washed with PBS, and further incubated in growth medium/DMSO (99:1, v/v) (100 μL) containing the ruthenium(II) complexes (40 μM) in the dark at 37° C. under a 5% CO2 atmosphere for 6, 12, or 24 h. Wells containing untreated cells were used as blank control. The microplate was incubated at 37° C. under a 5% CO2 atmosphere for another 4 h. The growth medium was then removed, and DMSO (200 μL) was added to each well. The microplate was further incubated for 15 min. The absorbance of the solutions at 570 nm was measured with a SPECTRAmax 340 microplate reader."}, "[2]": {"test": "SPANC reaction kinetics with BCN—OH by UV/Vis absorption spectroscopy", "type": "physicochemical", "settings": "reaction with BCN—OH in MeOH at 298 K", "experimental": "The reactivity of the iridium(III) and ruthenium(II) pyridyl complexes toward a strained alkyne derivative BCN—OH in MeOH at 298 K was studied. The second-order rate constants (k2) of the strain-promoted alkyne-nitrone cycloaddition (SPANC) reaction of complexes 1a-5b are shown in Tables 3 and 4, respectively. The k2 values of the iridium(III) complexes 1a, 2a and 3a and the ruthenium(II) complexes 1b, 2b, 3b, 4b, and 5b were determined to be 0.116-0.238 and 0.078-3.06 M^−1 s^−1, respectively, which are about 1.95-76.5 times that of the free ligand bpy-nitrone-Me (k2=0.040 M^−1 s^−1). This is attributed to the electron-withdrawing effects of the positively-charged metal centers. […] The accelerated reaction kinetics is assumed to originate from the presence of the more electron-withdrawing phenyl ring at the N-position of the nitrone moiety. Thus, the accelerated reaction kinetics render complexes 1a-5b highly advantageous bioorthogonal probes for biomolecules modified with a strained alkyne moiety.\nMore specifically, the SPANC reaction kinetics of complexes 1a 5b was studied by UV/Ms absorption spectroscopy. For the ligand bpy-nitrone-Me and the iridium(III) complexes 1a-3a, the k2 values were measured under pseudo first order conditions with a 25- to 100-fold excess of BCN—OH in MeOH at 298 K. The reaction process was followed by monitoring the exponential decay of the absorbance at 306-342 nm upon addition of BCN—OH. The final concentrations of the nitrone compounds were 10 μM and those of BCN—OH ranged from 0.25 to 1.0 mM. For the ruthenium(II) complexes 1b-5b, the k2 values were determined under pseudo first order conditions with a 50- to 200-fold excess of BCN—OH in MeOH at 298 K. The reaction process was monitored by following the exponential decay of the absorbance at 329 nm. The final concentrations of the complexes were 10 μM and those of BCN—OH ranged from 0.5 to 2.0 mM. The data were fitted to a single-exponential equation to give the observed rate constants (kobs), which were plotted against the concentrations of BCN—OH to obtain the k2 from the slope of the plots."}}}
{"smiles": "[Cl][Ru][Cl].c1ccc(-c2ccccn2)nc1.c1ccc(-c2ccccn2)nc1.c1ccc(-c2ccccn2)nc1", "note": "[[Ru(bpy)3]Cl2]", "values": [{"measurement": "ϕem of standard solution", "setting": "[1]", "result": 0.028}]}
{"smiles": "Cc1ccnc(-c2cc(/C=[N+](/C)[O-])ccn2)c1.F[P-](F)(F)(F)(F)F.F[P-](F)(F)(F)(F)F.[Ru+2].c1ccc(-c2ccccn2)nc1.c1ccc(-c2ccccn2)nc1", "note": "[Complex 1b, [Ru(bpy)2(bpy-nitrone-Me)](PF6)2]", "values": [{"measurement": "Cell viability with BCN-C10 pretreatment", "setting": "HeLa cells", "result": "maintained good biocompatibility"}]}
{"smiles": "Cc1ccnc(-c2cc(C=[N+](C)[O-])ccn2)c1", "note": "[bpy-nitrone-Me, 4-((Methyl(oxido)imino)methyl)-4′-methyl-2,2′-bipyridine]", "values": [{"measurement": "Second-order rate constants (k2)", "setting": "[2]", "result": 0.040, "unit": "M⁻¹ s⁻¹"}]}
